In ChEMBL document CHEMBL5465560, “Selectivity Literature for EUbOPEN Chemogenomic Library” (2024):

What was measured:
[1] = target: T1, Serine/threonine-protein kinase STK11 (Homo sapiens) (UniProt Q15831); test: Selectivity interaction (KinomeScan (DiscoverX)) EUB0000666a STK11; settings: at 10 µM
T1 sequence (whole entry): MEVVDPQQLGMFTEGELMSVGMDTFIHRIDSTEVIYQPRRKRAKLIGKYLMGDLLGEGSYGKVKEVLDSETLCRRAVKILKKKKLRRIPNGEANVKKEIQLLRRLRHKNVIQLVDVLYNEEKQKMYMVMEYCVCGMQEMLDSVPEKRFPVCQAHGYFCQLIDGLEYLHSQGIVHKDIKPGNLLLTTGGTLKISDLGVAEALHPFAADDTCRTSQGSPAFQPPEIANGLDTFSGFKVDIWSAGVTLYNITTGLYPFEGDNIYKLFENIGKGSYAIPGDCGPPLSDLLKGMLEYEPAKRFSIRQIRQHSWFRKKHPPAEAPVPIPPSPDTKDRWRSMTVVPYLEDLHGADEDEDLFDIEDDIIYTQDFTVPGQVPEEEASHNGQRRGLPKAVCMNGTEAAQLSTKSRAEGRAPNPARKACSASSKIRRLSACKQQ

[2] = target: Myosin-IIIa (Homo sapiens) (UniProt Q8NEV4); test: Selectivity interaction (KinomeScan (DiscoverX)) EUB0000595a MYO3A; settings: at 10 µM
Chain of Myosin-IIIa (Homo sapiens) (Q8NEV4 whole entry): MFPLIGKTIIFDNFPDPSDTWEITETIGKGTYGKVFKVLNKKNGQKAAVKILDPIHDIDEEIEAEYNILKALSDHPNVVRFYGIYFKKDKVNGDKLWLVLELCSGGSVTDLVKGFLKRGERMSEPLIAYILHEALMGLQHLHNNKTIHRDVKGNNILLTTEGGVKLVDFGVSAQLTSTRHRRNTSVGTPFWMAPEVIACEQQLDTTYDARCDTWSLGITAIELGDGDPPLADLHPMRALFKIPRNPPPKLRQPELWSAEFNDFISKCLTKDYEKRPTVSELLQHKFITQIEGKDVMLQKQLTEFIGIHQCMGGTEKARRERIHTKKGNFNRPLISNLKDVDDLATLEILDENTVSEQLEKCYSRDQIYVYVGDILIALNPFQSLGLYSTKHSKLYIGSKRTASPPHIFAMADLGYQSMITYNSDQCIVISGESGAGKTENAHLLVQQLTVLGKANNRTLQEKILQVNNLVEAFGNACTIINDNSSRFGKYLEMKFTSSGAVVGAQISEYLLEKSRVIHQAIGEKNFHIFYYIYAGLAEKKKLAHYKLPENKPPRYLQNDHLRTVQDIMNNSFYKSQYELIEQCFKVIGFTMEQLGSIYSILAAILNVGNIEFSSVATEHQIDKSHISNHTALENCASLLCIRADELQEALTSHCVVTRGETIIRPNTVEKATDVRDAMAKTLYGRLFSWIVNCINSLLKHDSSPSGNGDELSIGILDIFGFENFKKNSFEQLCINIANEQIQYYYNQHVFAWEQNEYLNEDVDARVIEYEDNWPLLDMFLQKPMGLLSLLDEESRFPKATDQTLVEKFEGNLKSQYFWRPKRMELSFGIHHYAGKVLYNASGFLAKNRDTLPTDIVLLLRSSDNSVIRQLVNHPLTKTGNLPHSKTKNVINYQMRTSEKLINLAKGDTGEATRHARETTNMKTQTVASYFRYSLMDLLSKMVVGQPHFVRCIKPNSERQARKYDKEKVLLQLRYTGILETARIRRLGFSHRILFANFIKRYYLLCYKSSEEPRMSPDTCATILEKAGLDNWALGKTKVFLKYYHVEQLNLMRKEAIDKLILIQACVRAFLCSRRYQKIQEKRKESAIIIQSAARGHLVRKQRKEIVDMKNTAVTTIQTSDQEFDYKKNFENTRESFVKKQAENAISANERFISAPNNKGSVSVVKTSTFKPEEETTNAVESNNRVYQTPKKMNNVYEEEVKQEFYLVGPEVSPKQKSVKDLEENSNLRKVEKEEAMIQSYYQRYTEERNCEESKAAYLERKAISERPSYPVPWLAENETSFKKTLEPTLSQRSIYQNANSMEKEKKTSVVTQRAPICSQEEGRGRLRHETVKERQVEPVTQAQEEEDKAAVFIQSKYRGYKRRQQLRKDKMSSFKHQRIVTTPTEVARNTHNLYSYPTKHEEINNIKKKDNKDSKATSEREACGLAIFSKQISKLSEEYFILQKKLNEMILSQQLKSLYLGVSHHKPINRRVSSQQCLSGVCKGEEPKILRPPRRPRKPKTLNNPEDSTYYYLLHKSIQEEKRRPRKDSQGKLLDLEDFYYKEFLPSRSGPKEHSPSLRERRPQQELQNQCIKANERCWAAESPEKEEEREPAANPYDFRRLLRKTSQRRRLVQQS

[3] = target: Ribosomal protein S6 kinase alpha-5 (Homo sapiens) (UniProt O75582); test: Selectivity interaction (KinomeScan (DiscoverX)) EUB0000092b RPS6KA5; settings: at 10 µM
[4] = target: Citron Rho-interacting kinase (Homo sapiens) (UniProt O14578); test: Selectivity interaction (KinomeScan (DiscoverX)) EUB0000045b CIT
Chain of Citron Rho-interacting kinase (Homo sapiens) (O14578 whole entry): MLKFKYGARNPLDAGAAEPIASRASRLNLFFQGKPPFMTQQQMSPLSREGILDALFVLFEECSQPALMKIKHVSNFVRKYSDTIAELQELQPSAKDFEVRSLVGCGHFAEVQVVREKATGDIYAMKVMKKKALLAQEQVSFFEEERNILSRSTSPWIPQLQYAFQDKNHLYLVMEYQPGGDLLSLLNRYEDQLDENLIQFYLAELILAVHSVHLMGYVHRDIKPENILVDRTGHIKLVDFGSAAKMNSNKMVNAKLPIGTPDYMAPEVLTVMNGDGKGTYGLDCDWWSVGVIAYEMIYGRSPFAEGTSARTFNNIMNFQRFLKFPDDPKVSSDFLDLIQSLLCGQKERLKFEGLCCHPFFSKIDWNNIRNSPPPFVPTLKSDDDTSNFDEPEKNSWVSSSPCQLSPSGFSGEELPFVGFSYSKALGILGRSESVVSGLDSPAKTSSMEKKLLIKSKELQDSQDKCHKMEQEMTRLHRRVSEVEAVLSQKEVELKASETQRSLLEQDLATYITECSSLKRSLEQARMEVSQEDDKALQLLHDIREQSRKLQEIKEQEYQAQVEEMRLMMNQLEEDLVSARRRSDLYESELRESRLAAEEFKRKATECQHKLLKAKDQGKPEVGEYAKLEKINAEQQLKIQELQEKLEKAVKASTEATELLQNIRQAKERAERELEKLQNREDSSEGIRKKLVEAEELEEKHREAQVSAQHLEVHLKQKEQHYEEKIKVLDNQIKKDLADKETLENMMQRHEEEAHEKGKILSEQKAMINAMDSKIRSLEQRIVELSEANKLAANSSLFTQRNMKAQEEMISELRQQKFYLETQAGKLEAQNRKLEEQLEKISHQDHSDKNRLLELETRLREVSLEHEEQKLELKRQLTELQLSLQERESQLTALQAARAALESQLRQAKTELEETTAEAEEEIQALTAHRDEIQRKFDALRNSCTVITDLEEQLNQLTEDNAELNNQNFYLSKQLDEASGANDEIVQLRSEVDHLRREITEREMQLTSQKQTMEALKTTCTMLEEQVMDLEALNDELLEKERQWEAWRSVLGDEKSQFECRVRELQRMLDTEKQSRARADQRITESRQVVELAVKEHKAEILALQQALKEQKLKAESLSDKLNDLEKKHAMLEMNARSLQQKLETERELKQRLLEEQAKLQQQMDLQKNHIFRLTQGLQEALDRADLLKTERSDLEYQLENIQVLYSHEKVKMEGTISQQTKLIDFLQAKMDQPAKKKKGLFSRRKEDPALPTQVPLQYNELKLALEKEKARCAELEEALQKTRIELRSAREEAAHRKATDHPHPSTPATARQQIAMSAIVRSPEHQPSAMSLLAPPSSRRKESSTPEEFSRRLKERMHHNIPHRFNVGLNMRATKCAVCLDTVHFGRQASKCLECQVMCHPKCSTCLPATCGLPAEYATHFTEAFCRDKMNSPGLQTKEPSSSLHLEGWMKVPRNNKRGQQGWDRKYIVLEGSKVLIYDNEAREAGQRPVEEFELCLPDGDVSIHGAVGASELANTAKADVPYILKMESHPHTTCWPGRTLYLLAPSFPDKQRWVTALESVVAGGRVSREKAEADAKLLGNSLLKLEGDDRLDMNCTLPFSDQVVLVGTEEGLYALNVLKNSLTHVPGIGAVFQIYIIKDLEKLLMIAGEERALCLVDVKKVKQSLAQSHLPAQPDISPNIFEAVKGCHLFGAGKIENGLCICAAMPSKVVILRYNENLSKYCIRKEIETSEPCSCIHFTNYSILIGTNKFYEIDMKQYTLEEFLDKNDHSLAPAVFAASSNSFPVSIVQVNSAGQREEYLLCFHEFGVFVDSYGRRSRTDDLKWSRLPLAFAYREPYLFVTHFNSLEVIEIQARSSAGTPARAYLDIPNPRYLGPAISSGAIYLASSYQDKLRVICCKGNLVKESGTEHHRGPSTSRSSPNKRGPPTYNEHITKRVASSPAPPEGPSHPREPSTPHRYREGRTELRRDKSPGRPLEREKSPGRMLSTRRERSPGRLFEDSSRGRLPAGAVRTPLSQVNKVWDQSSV

[5] = target: Mitogen-activated protein kinase kinase kinase 10 (Homo sapiens) (UniProt Q02779); test: Selectivity interaction (KinomeScan (DiscoverX)) EUB0000045b MAP3K10
Chain of Mitogen-activated protein kinase kinase kinase 10 (Homo sapiens) (Q02779 whole entry, looked up): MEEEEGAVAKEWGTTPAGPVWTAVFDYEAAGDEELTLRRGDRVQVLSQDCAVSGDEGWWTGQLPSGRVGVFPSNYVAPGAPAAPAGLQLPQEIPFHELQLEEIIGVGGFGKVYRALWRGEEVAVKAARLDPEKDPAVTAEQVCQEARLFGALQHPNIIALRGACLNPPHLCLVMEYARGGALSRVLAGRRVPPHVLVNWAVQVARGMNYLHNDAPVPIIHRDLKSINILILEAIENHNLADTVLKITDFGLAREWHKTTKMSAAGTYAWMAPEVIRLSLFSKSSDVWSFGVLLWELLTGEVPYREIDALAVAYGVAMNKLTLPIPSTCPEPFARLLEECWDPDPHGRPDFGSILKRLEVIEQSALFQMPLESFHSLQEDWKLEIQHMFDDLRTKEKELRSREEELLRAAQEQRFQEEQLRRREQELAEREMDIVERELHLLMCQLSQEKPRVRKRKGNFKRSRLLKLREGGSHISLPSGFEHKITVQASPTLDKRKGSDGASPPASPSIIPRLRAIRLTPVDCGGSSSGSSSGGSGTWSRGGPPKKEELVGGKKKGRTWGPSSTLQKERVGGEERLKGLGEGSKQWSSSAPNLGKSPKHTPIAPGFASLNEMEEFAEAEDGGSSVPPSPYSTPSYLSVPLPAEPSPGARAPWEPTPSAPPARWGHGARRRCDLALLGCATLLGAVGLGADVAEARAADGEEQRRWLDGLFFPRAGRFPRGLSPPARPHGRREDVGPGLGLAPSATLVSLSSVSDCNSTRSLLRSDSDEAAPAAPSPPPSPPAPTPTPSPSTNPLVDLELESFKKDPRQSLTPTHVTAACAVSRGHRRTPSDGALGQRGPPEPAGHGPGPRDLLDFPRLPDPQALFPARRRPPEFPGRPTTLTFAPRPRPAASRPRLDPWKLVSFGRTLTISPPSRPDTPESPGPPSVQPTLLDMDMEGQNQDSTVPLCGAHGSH

[6] = target: Mitogen-activated protein kinase kinase kinase 9 (Homo sapiens) (UniProt P80192); test: Selectivity interaction (KinomeScan (DiscoverX)) EUB0001619a MAP3K9; settings: at 1 µM
[7] = target: Serine/threonine-protein kinase 10 (Homo sapiens) (UniProt O94804); test: Selectivity interaction (ActivX KiNativ screen (ex vivo kinase selectivity in human PBMCs)) EUB0001619a STK10; assay type: cell-based; settings: PBMC, at 1 µM
[8] = target: Casein kinase I isoform delta (Homo sapiens, UniProt P48730); test: Selectivity interaction (KinomeScan (DiscoverX)) EUB0000655a CSNK1D; settings: at 10 µM
Chain of Casein kinase I isoform delta (P48730 whole entry, looked up, the tested form may be a part, canonical isoform): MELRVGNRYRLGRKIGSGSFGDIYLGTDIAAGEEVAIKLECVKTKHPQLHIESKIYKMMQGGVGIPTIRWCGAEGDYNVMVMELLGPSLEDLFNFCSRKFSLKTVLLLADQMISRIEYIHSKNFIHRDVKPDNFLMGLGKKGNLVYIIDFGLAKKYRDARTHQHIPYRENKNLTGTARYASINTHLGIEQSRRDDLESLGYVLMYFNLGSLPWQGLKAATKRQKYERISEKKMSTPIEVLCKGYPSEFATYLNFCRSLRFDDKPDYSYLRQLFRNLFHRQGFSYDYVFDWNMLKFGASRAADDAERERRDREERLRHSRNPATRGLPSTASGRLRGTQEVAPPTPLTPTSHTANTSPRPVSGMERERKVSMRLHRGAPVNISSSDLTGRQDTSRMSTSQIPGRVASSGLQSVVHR

[9] = target: T2, Discoidin domain-containing receptor 2 (Homo sapiens) (UniProt Q16832); test: Selectivity interaction (KinomeScan (DiscoverX)) EUB0000607a DDR2; settings: at 10 µM
T2 sequence (whole entry): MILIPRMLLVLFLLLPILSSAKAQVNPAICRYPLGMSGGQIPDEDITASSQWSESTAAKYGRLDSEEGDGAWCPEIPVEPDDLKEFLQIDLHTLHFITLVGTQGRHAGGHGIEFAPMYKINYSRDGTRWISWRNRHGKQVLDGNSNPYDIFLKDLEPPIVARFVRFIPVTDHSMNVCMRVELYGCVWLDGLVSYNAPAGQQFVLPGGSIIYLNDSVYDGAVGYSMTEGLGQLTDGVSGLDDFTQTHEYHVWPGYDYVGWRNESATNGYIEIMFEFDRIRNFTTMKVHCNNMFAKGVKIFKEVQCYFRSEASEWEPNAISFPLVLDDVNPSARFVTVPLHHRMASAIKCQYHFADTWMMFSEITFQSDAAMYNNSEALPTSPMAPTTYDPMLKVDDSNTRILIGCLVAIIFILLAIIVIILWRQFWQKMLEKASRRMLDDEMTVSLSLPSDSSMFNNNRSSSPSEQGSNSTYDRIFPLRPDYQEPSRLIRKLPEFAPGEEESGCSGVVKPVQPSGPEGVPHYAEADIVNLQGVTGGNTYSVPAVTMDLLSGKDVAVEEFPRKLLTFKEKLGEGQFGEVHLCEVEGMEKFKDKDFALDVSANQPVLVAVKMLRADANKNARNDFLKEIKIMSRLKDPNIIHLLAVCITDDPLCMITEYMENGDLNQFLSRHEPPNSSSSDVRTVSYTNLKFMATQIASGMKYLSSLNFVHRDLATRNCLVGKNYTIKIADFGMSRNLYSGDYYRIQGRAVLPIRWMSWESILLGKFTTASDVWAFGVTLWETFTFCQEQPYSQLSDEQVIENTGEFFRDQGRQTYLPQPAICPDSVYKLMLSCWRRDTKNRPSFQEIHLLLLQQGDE

[10] = target: T3, G protein-coupled receptor kinase 3 (Homo sapiens) (UniProt P35626); test: Selectivity interaction (ProQinase) EUB0000171b ADRBK2
T3 sequence (whole entry): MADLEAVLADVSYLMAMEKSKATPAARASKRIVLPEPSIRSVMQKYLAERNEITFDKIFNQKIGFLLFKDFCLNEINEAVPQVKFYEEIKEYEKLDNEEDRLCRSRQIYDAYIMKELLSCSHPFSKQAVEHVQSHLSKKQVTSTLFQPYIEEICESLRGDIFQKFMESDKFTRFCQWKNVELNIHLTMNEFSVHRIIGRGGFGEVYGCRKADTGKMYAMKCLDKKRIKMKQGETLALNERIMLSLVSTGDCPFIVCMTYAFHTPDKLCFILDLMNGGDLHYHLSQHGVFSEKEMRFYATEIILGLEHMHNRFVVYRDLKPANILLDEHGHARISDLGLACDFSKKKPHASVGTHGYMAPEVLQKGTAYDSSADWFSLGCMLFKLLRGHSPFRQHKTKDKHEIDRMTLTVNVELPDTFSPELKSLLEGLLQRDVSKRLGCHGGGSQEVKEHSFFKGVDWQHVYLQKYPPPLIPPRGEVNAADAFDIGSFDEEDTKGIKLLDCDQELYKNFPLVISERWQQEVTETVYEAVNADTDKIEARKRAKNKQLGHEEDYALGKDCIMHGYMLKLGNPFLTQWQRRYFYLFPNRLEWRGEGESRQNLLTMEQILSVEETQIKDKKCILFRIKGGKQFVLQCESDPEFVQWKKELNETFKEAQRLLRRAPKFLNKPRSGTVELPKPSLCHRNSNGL

Work on `O=C(NOC[C@H](O)CO)c1ccc(F)c(F)c1Nc1ccc(I)cc1F` yielded a % of control [1] of 83%.

Work on `COCC(=O)NC/C=C/c1ccc2ncnc(Nc3ccc(Oc4ccc(C)nc4)c(C)c3)c2c1` [CP-724714] yielded a % of control [2] of 75%.

With `CCC(=O)N1CCN(c2ccc(-n3c(=O)ccc4cnc5ccc(-c6cnc7ccccc7c6)cc5c43)cc2C(F)(F)F)CC1` the % of control [3] was 100%.

For `C=CC(=O)Nc1cc(-n2c(=O)ccc3cnc4ccc(-c5ccc(NS(C)(=O)=O)cc5)cc4c32)ccc1C`, the % of control ([4]; at 1 µM) was 83%, the % of control ([4]; at 10 µM) was 53% and the % of control ([5]; at 1 µM) was 100%. The % of control ([5]; at 10 µM) was 100%.

For `N#Cc1cccc(-c2c[nH]c3ncnc(N4CCOCC4)c23)c1`, the % of control [6] was 72% and the % of inhibition [7] was 77%.

`CN(C)CCOc1ccc(-c2nc(-c3ccncc3)c(-c3ccc4c(c3)CC/C4=N\O)[nH]2)cc1` gave a % of control [8] of 4%.

`CNC(=O)Nc1ccc(-c2nc(N3CC4CCC(C3)O4)c3cnn(C4CCC5(CC4)OCCO5)c3n2)cc1` was tested, and the % of control [9] was 100%.

`C=CC(=O)Nc1cccc(C(=O)Nc2ccc(Nc3cc(-c4[nH]c(SC)nc4C)ccn3)cc2)c1` was tested, and the % of control ([10]; at 1 µM) was 94% and the % of control ([10]; at 5 µM) was 95%.
